Experimental data taken from patent publication US11267802B2 (BEBETTER MED INC., priority 2015, dated 2022).

Legend:
[1] = Pharmacokinetic experiments of tumor model (plasma and tumor tissue, H1975 xenograft mice); assay type: in vivo, Balb/C nude mice; conditions: oral 30 mg/kg; for AUC(0-inf) / Cmax / Tmax / half-life / AUC(0-t): Balb/C nude, mouse; for AUC(0-t): read-out: AUC0-24
Procedure: (§1) Balb/C nude mice were purchased from Beijing Vital River Laboratory Animal Technology Co., Ltd., and housed in SPF animal room. The human non-small-cell lung cancer cell line H1975 in a culture dish was collected by trypsin-EDTA (0.25% trypsin, 1 mM EDTA), and then washed with a serum-free PBS solution. Lastly, the cells were implanted after diluted in a serum-free medium. Only the single cell suspension with a survival rate over 90% (Trypan blue rejection) can be used for injection. 5 million cells suspended in a 0.1 ml serum-free culture were injected into the front right flanking subcutaneous region of each mouse by using a 1 ml syringe and a 25G syringe needle, and the blood vessel was carefully avoided. The tumor size was measured in about one week after implantation. A caliper rule was used to measure the tumor size. The tumor volume was calculated by the following formula: tumor volume=(length×width^2)/2.
When the volume of H1975 xenograft tumor reached a volume of about 400 mm^3, the animals were divided into 6 oral administration groups, that is, excipient control group (0 hour) and groups of 30 minutes, 2 hours, 4 hours, 8 hours, and 24 hours after administration (3 animals at each time point). The compound 91 was dissolved in 30% sulfobutylated beta-cyclodextrin (SBE-β-CD) and 1 N HCl (pH 3-4) at a concentration of 3 mg/ml, and gavage administration at a dose of 30 mg/kg was performed. The mice were euthanized by CO2 at the above time points. Then their blood was collected from the heart and placed in a centrifuge tube containing K2-EDTA, and subjected to plasma collection by centrifugation. The tumor tissue was collected, cooled in liquid nitrogen immediately, and then stored under −80° C. until pharmacokinetic analysis.
Pharmacokinetic analysis was performed as below: the plasma sample and tumor tissue homogenate sample were mixed with 5 microliter of internal standard (IS), and then extracted with ethyl acetate. After vacuum drying, the residue was re-dissolved in acetonitrile. The sample was filtered and injected into LC-MS/MS for analysis.

[2] = tested on: H1975 xenograft tumor; assay: Potency assay of tumor model, 16 consecutive days; assay type: in vivo, Balb/C nude mice; conditions: oral
Procedure: as §1
This experiment studied the inhibition of tumor growth in H1975 xenograft tumor model by the compounds 20, 50, 91, and 118. When the mean volume of H1975 tumor reached about 260 mm^3, the animals were divided into 5 oral administration groups, that is, excipient control group and groups of oral administration of compound 20, compound 50, compound 91, and compound 118, respectively (n=8/group). These compounds were dissolved in 30% sulfobutylated beta-cyclodextrin (SBE-β-CD) and 1N HCl (pH 3-4). […]

[3] = Pharmacokinetics in beagles after oral administration; assay type: in vivo; conditions: male, beagle, dog, 5 mg/kg, plasma
Procedure: (§2) Male SD rats weighing 250-300 g, or male beagles weighing 9-10 kg, were fasted overnight before the experiment. The object compounds were dissolved in 30% sulfobutylated beta-cyclodextrin (SBE-β-CD), and orally administrated to the rats at a dose of 20 mg/kg or to the beagles at a dose of 5 mg/kg. Blood samples were taken at 15 minutes, 30 minutes, 1 hour, 2 hours, 3 hours, 4 hours, 6 hours, 8 hours and 24 hours after administration. 0.3 ml of blood was collected at every time point, placed in a centrifuge tube containing K2-EDTA (ethylenediamine tetraacetic acid dipotassium) and centrifuged (2,000 g, 10 minutes, 4° C.) to collect plasma, which was then stored in an ultra cold storage freezer at −80° C. 50 μL of plasma sample was mixed with 5 μL of internal standard (IS), and then extracted with ethyl acetate. After vacuum drying, the residue was re-dissolved in acetonitrile. The sample was filtered and injected into LC-MS/MS for analysis.

[4] = Pharmacokinetics in rats after oral administration; assay type: in vivo, SD rats
Procedure: as §2

[5] = tested on: H1975 xenograft tumor; assay: Potency assay of tumor model, dose-effect relationship, 22 consecutive days; assay type: in vivo, Balb/C nude mice; conditions: for Tumor inhibition T/C value (%) / Weight change (%): po, qd
Procedure: as §1
Further assay was performed to assess the dose-effect relationship of the inhibition of H1975 transplantation tumor growth by the compounds 51 and 91. […] These compounds were dissolved in 30% sulfobutylated beta-cyclodextrin (SBE-β-CD) and 1N HCl (pH 3-4), respectively. […]

[6] = male, SD, rat, 20 mg/kg, plasma

AUC(0-inf) ([1]; plasma): 5130 ng·h/mL
Cmax ([1]; plasma): 1720 ng/mL
Tmax ([1]; plasma): 0.5 h
half-life ([1]; plasma): 3.1 h
AUC(0-t) ([1]; plasma): 5100 ng·h/mL
AUC(0-inf) ([1]; tumor tissue): 6840 ng·h/mL
Cmax ([1]; tumor tissue): 868 ng/mL
Tmax ([1]; tumor tissue): 4 h
half-life ([1]; tumor tissue): 5.5 h
AUC(0-t) ([1]; tumor tissue): 6430 ng·h/mL
absorption after oral administration (in words) [1]: absorbed quickly
AUC(0-inf) [3]: 814 ng·h/mL
Cmax [3]: 109 ng/mL
Tmax [3]: 1.67 h
half-life [3]: 4.37 h
AUC(0-t) ([3]; read-out: AUC0-24): 786 ng·h/mL
absorption / blood exposure after oral administration (in words) [4]: well absorbed, with high blood exposure
AUC(0-inf) [4, 6]: 1350 ng·h/mL
Cmax [4, 6]: 292 ng/mL
Tmax [4, 6]: 1 h
half-life [4, 6]: 3 h
AUC(0-t) ([4]; male, SD, rat, 20 mg/kg, plasma, read-out: AUC0-24): 1340 ng·h/mL
Weight change (%) ([5]; 10 mg/kg, 22 consecutive days): 1.6%
Weight change (%) ([5]; 20 mg/kg, 22 consecutive days): 1.2%
Weight change (%) ([5]; 40 mg/kg, 22 consecutive days): −3.5%
Compound: C=CC(=O)Nc1cc(Nc2nccc(-n3c(=O)n(C(C)C)c4cc(F)ccc43)n2)c(OC)cc1N(C)CCN(C)C [Compound 91, N-(2-((2-(dimethylamino)ethyl)(methyl)amino)-5-(4-(5-fluoro-3-isopropyl-2-oxo-2,3-dihydro-1H-benzo[d]imidazol-1-yl)pyrimidin-2-ylamino)-4-methoxyphenyl)acrylamide]
T/C value ([2]; 30 mg/kg qd as printed, 16 days after administration): −95%
inhibition of growth of H1975 xenograft tumor (in words) ([2]; 30 mg/kg qd, 16 days): tumor regression
Tumor inhibition T/C value (%) ([5]; 10 mg/kg, 22 consecutive days): −73%
Tumor inhibition T/C value (%) ([5]; 20 mg/kg, 22 consecutive days): −100%
Tumor inhibition T/C value (%) ([5]; 40 mg/kg, 22 consecutive days): −100%
tumor outcome (in words) ([5]; high dose (40 mg/kg), 22 consecutive days): the tumor disappeared completely
dose dependence of inhibition of H1975 xenograft tumor growth (in words) ([5]; oral, 10, 20 and 40 mg/kg): dose dependently inhibited
